Data taken from ChEMBL document CHEMBL1201862, “PubChem BioAssay data set” (2004).
Activity calls are given as the source filed them.

Experiments:
[1] = biological target: T1, Low molecular weight phosphotyrosine protein phosphatase (Homo sapiens, UniProt P24666); test: LMPTP phosphatase inhibitors, colorimetric pNPP readout, dose response, orthogonal assay, biochemical, absorbance, pNPP substrate, LMPTP-A isoform, set 2 (AID 743308); format: functional
T1 sequence (P24666 whole entry): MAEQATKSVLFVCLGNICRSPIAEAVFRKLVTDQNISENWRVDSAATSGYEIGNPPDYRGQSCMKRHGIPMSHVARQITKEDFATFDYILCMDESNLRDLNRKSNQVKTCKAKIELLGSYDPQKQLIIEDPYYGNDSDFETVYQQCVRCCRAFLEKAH

[2] = biological target: T1, Low molecular weight phosphotyrosine protein phosphatase; test: LMPTP phosphatase inhibitors, dose response, biochemical, OMFP substrate, fluorescence intensity, set 2 (AID 743307); format: functional
[3] = CEM21 lymphoblast cell cytotoxicity, dose response, cytotoxicity control for viral fusion inhibitor project, CellTiter-Glo luminescence, cherry-picked (AID 652042); format: functional, cell-based;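 further: potency for signal decrease meaning cytotoxicity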
INS1 = test: beta cell apoptosis inhibitors, cytokine rescue, dose response, luminescence, retest (AID 449756); format: functional, cell-based; details: Rattus norvegicus;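 further: cell death triggered by IL-1 beta plus TNF-alpha plus IFN-gamma mixture; protective hits raise ATP signal compared with cytokine alone wells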
cells [4] = format: functional, cell-based
[5] = growth suppression of PTEN-null colon cells, dose response, cell-based, HCT116 PTEN knockout (AID 1047); format: functional;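 further: HCT116 colon tumor cells with PTEN knocked out; cells exposed to compound for 60 hours before readout; potency for loss of cell viability measured by luminescence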
Nonstructural protein 1 = Nonstructural protein 1 (Influenza A virus, UniProt Q194T2); format: functional, Influenza A virus (A/California/07/2009(H1N1))
cells [6] = format: functional, cell-based; remark: listed apart in the source
[7] = biological target: T2, Mannose-6-phosphate isomerase (Homo sapiens, UniProt P34949); test: human PMI inhibitors, high substrate, primary screen, biochemical, fluorescence intensity, high mannose 6-phosphate (AID 1220)
T2 sequence (P34949 whole entry): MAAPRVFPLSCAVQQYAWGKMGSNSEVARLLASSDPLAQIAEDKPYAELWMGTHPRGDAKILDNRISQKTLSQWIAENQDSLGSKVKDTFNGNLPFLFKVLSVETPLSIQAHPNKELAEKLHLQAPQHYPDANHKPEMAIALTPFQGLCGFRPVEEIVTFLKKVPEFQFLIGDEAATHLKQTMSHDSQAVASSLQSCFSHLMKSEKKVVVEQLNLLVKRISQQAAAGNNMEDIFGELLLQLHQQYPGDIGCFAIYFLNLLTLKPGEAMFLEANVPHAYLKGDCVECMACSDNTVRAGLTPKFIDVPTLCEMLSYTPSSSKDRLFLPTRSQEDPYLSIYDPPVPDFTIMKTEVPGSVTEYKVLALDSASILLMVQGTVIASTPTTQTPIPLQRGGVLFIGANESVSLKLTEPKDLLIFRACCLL

[8] = inhibitors of clade B AD8 Env fusion, dose response, cell-based, cherry-pick (AID 652062); format: functional;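 further: luciferase signal from cell-cell fusion driven by HIV-1 clade B AD8 Env; potency is for inhibitors of fusion seen as a drop in luminescence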
[9] = growth suppression of beta-catenin-knockout colon cells, dose response, cell-based, HCT116, human colon tumor (AID 1045); format: functional;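 further: HCT116 colon tumor cells with beta catenin knocked out; cells exposed to compound for 60 hours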
[10] = biological target: T3, Replicative DNA helicase DnaB (Mycobacterium tuberculosis, UniProt P9WMR3); test: DnaB intein splicing inhibitors, dose response, biochemical, cell-free fluorescence (AID 449749); format: functional
T3 sequence (P9WMR3 whole entry): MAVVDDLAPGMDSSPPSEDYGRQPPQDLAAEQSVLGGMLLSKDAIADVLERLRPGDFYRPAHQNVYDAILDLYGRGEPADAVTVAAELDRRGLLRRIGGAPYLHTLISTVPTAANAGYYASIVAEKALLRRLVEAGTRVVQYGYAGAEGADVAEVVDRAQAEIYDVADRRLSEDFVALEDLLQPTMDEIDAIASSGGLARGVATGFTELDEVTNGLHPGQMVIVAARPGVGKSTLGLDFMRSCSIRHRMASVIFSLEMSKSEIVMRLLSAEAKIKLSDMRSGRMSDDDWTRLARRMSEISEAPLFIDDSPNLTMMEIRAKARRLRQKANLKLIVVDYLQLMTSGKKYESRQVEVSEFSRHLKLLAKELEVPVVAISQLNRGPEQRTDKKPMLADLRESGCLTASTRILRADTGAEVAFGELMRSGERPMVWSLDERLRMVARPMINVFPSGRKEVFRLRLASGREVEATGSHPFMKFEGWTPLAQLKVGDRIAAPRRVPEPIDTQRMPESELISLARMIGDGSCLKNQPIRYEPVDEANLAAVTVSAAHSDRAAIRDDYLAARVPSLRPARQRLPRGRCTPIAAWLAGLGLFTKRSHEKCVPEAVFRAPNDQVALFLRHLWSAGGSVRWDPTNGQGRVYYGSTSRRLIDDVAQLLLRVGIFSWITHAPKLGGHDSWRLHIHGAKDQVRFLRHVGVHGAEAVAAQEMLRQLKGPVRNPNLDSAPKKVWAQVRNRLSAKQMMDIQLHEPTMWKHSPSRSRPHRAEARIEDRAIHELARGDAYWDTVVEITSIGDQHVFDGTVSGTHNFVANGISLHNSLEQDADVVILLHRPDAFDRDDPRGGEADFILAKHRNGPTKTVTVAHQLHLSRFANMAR

HEK293 [11] = test: cells; format: functional, cell-based; details: Homo sapiens
HEK293 [12] = test: NOD2 signaling inhibitors in MDP-stimulated cells, cell-based, uHTS, luminescence (AID 2001); format: functional; details: Homo sapiens
Protein RecA = biological target: T4, Protein RecA (Mycobacterium tuberculosis, UniProt P9WHJ3); test: Fluorescence Cell-Free Homogeneous Dose Retest to Identify Inhibitors of RecA-Intein Splicing Activity. [Related pubchem assays (depositor defined):AID2097, AID2223, AID489010, AID492950]; format: functional
T4 sequence (P9WHJ3 whole entry): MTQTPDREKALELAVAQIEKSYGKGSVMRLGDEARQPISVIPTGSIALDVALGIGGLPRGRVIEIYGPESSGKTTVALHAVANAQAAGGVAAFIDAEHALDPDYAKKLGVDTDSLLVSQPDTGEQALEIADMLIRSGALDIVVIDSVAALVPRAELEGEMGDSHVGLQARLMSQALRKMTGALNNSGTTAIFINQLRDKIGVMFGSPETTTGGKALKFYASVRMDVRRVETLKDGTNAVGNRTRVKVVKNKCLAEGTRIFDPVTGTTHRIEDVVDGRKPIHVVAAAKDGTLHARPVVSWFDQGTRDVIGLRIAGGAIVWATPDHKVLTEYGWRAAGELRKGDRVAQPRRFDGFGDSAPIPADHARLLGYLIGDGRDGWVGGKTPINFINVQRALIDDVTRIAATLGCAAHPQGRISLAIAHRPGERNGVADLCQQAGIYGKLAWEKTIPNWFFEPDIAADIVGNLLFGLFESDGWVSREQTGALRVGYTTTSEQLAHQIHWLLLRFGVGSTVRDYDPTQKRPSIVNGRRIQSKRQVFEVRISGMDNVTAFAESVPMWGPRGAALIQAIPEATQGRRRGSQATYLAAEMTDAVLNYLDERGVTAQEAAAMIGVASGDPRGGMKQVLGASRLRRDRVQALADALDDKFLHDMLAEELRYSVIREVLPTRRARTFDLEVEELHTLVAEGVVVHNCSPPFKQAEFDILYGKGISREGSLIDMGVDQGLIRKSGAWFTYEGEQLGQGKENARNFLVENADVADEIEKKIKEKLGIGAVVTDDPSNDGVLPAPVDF

[13] = Vero cell cytotoxicity, dose response, cytotoxicity control for Vif-APOBEC3G degradation inhibitor project, Vero cells (AID 1117358); format: functional; details: Human immunodeficiency virus 1, Vero
[14] = Intein inhibitors as potential Tuberculosis drugs, a cytotoxicity screen. [Related pubchem assays (depositor defined):AID2221, AID2223, AID434968, AID435010, AID449749, AID449750, AID489010]; format: functional
HEK293 [15] = test: cells; format: functional, cell-based; details: Homo sapiens; remark: listed apart in the source
HEK293 [16] = test: cells; format: functional, cell-based; details: Homo sapiens; remark: listed apart in the source
HEK293 [17] = test: NOD1 signaling inhibitors, primary screen, cell-based, luminescence, uHTS (AID 1578); format: functional; details: Homo sapiens
[18] = biological target: Nucleotide-binding oligomerization domain-containing protein 2 (Homo sapiens, UniProt Q9HC29); test: NOD2 signaling inhibitors, cell-based, luminescence, uHTS, HEK293 (AID 1566); format: functional
NADPH oxidase 1 = NADPH oxidase 1 (Homo sapiens, UniProt Q9Y5S8); test: Late-stage luminescence-based cell-based dose response assay to identify inhibitors of NADPH oxidase 1 (NOX1): Synthesized analogs 2.; format: functional
[19] = biological target: Solute carrier family 12 member 2/member 5 (Homo sapiens, UniProt P55011+Q9H2X9); test: KCC2 and NKCC1 inhibition by rubidium flux, cell-based, NKCC1 counter-screen (AID 1734); format: functional, HEK293
Bcl-2-related protein A1 [20] = biological target: T5, Bcl-2-related protein A1 (Mus musculus, UniProt Q07440); test: Bfl-1 inhibitors blocking BH3 peptide binding, confirmation, biochemical, TR-FRET, mouse Bfl-1 (AID 621);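 further: TR-FRET binding of GST-Bfl-1 to FITC-labelled Bid peptide via terbium antibody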
T5 sequence (Q07440 whole entry): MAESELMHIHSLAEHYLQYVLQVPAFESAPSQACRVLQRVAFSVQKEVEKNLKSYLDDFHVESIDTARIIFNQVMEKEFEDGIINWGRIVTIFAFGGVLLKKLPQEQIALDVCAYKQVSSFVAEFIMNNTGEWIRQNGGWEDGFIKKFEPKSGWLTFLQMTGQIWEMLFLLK

Bcl-2-related protein A1 [21] = biological target: T5, Bcl-2-related protein A1; test: Bfl-1 inhibitors, primary screen, biochemical, fluorescence polarization, FITC-Bid, mouse (AID 432)
[22] = biological target: T6, Dual specificity protein phosphatase 6 (Rattus norvegicus, UniProt Q64346); test: MKP-3 phosphatase inhibitors, primary screen, biochemical, rat enzyme, in vitro (AID 425)
T6 sequence (Q64346 whole entry): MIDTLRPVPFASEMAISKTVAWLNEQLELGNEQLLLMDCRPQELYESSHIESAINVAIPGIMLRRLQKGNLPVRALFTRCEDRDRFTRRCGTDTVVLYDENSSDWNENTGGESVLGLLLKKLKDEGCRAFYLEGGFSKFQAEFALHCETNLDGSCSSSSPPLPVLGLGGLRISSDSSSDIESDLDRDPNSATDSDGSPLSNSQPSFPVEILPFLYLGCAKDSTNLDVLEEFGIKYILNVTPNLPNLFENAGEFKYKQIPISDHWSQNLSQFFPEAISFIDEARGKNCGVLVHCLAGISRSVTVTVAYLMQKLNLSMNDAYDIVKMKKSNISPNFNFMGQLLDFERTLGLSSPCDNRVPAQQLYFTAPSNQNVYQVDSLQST

[23] = biological target: T7, High affinity choline transporter 1 (Homo sapiens, UniProt Q9GZV3); test: CHT inhibitors, dose response, cell-based, 5-point CRC, membrane potential dye (AID 504840); format: functional
T7 sequence (Q9GZV3 whole entry): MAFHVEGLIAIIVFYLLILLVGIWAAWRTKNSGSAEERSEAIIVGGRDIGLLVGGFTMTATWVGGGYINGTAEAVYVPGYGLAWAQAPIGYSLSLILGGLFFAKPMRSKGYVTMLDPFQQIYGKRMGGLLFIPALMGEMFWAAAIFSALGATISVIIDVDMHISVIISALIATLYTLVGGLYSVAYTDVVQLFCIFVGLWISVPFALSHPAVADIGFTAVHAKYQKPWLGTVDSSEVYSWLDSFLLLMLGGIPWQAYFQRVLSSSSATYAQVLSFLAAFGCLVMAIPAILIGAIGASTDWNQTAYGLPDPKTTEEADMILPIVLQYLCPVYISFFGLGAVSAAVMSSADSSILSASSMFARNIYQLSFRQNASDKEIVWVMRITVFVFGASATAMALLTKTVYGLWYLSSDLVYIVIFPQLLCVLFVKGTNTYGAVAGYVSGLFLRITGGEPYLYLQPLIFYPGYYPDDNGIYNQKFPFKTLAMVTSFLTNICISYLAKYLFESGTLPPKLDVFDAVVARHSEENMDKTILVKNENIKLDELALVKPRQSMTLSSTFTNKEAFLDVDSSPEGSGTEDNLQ

Danio rerio = test: In Vivo Angiogenesis Dose-Response Confirmation. [Related pubchem assays: 732 (Assay preceding this confirmatory assay.)]; format: functional, organism-based

Sequence of Nonstructural protein 1 (Q194T2 whole entry): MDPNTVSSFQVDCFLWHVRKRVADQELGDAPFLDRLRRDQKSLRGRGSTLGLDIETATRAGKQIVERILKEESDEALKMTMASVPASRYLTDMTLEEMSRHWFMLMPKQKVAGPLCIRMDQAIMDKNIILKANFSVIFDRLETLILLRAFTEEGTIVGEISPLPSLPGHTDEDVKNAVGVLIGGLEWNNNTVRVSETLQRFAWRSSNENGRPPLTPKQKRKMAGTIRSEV
Sequence of Nucleotide-binding oligomerization domain-containing protein 2 (Q9HC29 whole entry, the tested form may be a part): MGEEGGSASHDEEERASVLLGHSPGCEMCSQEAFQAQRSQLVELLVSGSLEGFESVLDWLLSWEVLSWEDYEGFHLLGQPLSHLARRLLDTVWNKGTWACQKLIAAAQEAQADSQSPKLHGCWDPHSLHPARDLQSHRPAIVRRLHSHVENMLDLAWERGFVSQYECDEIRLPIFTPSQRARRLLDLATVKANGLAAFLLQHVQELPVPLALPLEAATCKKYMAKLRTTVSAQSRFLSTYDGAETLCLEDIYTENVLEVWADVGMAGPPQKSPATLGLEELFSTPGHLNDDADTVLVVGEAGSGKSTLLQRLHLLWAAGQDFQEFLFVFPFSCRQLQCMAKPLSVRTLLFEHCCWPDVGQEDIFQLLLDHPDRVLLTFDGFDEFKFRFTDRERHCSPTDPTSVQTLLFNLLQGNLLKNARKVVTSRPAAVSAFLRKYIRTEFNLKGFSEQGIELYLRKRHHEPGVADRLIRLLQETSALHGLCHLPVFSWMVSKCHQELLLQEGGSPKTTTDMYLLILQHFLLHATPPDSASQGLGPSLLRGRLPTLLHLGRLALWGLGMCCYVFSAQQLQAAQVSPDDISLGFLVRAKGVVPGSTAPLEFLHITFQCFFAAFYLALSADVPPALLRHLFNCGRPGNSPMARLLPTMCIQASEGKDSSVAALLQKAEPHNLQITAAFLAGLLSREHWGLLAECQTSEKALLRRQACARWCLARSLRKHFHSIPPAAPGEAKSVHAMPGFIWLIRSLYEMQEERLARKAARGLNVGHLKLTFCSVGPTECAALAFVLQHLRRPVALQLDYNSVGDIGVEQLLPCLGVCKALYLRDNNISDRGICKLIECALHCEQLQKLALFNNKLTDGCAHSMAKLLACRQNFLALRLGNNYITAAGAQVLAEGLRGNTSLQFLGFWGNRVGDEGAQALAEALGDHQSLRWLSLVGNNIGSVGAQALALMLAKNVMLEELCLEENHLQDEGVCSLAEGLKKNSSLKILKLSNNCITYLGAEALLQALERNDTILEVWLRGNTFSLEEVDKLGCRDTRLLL
Sequence of NADPH oxidase 1 (Q9Y5S8 whole entry): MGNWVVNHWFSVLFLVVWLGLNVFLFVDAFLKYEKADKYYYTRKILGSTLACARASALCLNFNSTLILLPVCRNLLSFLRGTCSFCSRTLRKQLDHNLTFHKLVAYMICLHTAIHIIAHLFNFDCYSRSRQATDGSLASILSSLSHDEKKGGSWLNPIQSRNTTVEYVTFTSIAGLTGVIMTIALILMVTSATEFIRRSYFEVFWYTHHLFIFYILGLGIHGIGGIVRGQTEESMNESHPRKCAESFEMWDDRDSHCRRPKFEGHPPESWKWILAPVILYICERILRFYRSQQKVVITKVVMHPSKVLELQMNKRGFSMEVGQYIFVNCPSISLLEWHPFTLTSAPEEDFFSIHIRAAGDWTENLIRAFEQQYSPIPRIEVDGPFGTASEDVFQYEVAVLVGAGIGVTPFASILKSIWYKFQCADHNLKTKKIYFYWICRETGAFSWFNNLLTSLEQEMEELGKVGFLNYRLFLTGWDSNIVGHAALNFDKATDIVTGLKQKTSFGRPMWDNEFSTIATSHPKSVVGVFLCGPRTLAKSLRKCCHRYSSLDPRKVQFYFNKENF

In the case of `CC1CCN(c2nc(-c3ccccc3)nc3ccccc23)CC1`, the IC50 [1] is reported as > 80 µM (inactive) and the IC50 [2] is reported as > 80 µM (inactive).

In the case of `COc1ccccc1N1CCN(Cc2ccc(O)c3ncccc23)CC1`, the AC50 [3] is reported as 3.39 µM (active), the AC50 (INS1) is reported as 2.27 µM (active) and the EC50 (cells [4]) is reported as 12.1 µM (active). For the same compound, the EC50 [5] was 2.25 µM (active), the IC50 (Nonstructural protein 1) was 5.46 µM (active) and the EC50 (cells [6]) was > 350 µM (not active). The IC50 [7] was 19.2 µM (active), the AC50 [8] was 29.6 µM (active) and the EC50 [9] was 1.95 µM (active).

For `CN(C1=C(NC(=O)c2ccc(Cl)cc2)C(=O)c2ccccc2C1=O)c1ccccc1`, the AC50 [10] was 3.94 µM (active), the IC50 (HEK293 [11]) was 5.15 µM (active) and the IC50 (HEK293 [12]) was 8.31 µM (active). The EC50 (Protein RecA) was 1.66 µM (active), the CC50 [13] was > 40 µM (active) and the AC50 (INS1) was 3.01 µM (active). The EC50 [5] was 7.51 µM (active), the CC50 [14] was 20.1 µM (active) and the IC50 (HEK293 [15]) was 9.67 µM (active). The IC50 (HEK293 [16]) was > 20 µM (inactive), the IC50 (Nonstructural protein 1) was 7.27 µM (active) and the EC50 (HEK293 [17]) was > 20 µM (inactive). For the same compound, the EC50 [18] was 11.4 µM (active) and the EC50 [9] was 8.39 µM (active).

In the case of `O=C(Nc1c(F)cccc1F)N1c2ccccc2Sc2ccccc21`, the IC50 (NADPH oxidase 1) is reported as 0.636 µM (active).

In the case of `O=S(=O)(NCc1ccccc1)c1ccc(Cl)c(S(=O)(=O)NCc2ccccc2)c1`, the IC50 [19] is reported as 9.1 µM (active).

With `N#Cc1c(N)sc(=S)c2c1CCN(Cc1ccccc1)C2` the IC50 (Bcl-2-related protein A1 [20]) was > 100 µM (not active), the IC50 (Bcl-2-related protein A1 [21]) was > 100 µM (not active) and the IC50 [22] was 10.8 µM (active).

For `C[N+](C)(C)CCOC(=O)CBr` [E1001], the IC50 [23] was 14.1 µM (active) and the IC50 (Danio rerio) was 31.6 µM (not active).
